Measured values taken from ChEMBL document CHEMBL2034824, “Pyridyl-2,5-diketopiperazines as potent, selective, and orally bioavailable oxytocin antagonists: synthesis, pharmacokinetics, and in vivo potency” (J Med Chem, 2012).
≈ marks a conversion by molar mass, not a printed value.

Experiments:
Oxytocin receptor [1] = target: T1, Oxytocin receptor (Homo sapiens, UniProt P30559); test: Antagonist activity at human oxytocin receptor assessed as inhibition of oxytocin binding by FLIPR analysis
T1 sequence (P30559 whole entry): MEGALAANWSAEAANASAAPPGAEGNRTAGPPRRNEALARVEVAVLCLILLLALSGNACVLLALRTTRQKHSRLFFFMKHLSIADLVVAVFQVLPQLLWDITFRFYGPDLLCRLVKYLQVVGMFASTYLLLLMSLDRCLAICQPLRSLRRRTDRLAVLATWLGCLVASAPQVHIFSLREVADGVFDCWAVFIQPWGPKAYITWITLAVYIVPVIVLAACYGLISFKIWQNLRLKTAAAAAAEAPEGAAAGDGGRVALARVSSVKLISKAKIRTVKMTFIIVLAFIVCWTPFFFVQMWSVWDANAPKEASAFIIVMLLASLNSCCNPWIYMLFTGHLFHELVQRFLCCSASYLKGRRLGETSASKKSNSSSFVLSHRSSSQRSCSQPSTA

[2] = Chemical stability of the compound in aqueous solution at pH 2 to 6 up to 7 days in presence of light; type: physicochemical; details: buffer, pH 2, 168 h
Rattus norvegicus [3] = test: Reduction of oxytocin-induced uterine contraction in iv dosed rat uterine contractility model; type: functional, organism-based
Vasopressin V1a receptor = Vasopressin V1a receptor (Homo sapiens, UniProt P37288); test: Displacement of [3H]vasopressin from human vasopressin V1a receptor
Rattus norvegicus [4] = test: Toxicity in Sprague-Dawley rat assessed as adverse clinical signs at 100 mg/kg/day, po for 7 days; type: organism-based; design: route oral; details: in vivo, 168 h
Vasopressin V1b receptor = target: T2, Vasopressin V1b receptor (Homo sapiens, UniProt P47901); test: Displacement of [3H]vasopressin from human vasopressin V1b receptor
T2 sequence (P47901 whole entry): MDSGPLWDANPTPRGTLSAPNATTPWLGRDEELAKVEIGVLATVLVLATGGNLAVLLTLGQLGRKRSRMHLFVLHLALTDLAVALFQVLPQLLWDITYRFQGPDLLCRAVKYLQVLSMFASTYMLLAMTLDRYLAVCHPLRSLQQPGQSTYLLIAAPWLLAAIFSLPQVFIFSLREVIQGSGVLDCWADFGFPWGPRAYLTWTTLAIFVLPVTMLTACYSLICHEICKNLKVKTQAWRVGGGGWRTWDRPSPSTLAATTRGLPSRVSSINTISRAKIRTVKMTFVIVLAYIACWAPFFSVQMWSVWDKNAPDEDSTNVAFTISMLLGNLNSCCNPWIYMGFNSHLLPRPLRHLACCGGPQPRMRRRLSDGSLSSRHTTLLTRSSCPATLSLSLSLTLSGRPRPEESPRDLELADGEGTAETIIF

[5] = Lipophilicity, log D of the compound at pH 7.4; type: physicochemical; details: buffer
serum albumin [6] = target: serum albumin (Homo sapiens, UniProt P02768); test: Binding affinity to human serum albumin; type: ADME; details: read-out: PB (converted)
[7] = Solubility of the compound in water; type: physicochemical
Oxytocin receptor [8] = target: T1, Oxytocin receptor; test: Displacement of [3H]oxytocin from human oxytocin receptor
Cytochrome P450 2D6 = Cytochrome P450 2D6 (Homo sapiens, UniProt P10635); test: Inhibition of human CYP2D6; type: ADME
Cytochrome P450 1A2 = target: T3, Cytochrome P450 1A2 (Homo sapiens, UniProt P05177); test: Inhibition of human CYP1A2; type: ADME
T3 sequence (P05177 whole entry): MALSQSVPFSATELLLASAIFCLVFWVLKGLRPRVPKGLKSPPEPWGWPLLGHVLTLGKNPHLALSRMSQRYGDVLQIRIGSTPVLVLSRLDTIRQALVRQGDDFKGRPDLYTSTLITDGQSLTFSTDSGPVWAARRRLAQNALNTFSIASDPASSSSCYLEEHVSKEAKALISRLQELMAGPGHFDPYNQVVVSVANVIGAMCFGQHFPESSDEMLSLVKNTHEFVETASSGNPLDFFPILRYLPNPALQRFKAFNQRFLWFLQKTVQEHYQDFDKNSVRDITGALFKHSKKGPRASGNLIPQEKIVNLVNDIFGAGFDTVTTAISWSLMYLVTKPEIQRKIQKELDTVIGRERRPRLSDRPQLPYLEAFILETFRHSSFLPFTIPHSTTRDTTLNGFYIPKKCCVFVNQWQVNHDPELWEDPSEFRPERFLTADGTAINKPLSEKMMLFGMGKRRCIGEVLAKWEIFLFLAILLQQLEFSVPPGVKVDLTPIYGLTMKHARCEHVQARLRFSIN

[9] = Clearance in rat at 5 mg/kg; type: ADME, organism-based; design: dose 5 mg/kg; details: in vivo
[10] = Dissociation constant, pKa of the compound in aqueous solution; type: physicochemical
Liver = test: Intrinsic clearance in dog liver microsomes; type: ADME, Canis lupus familiaris, Microsome
[11] = Intrinsic clearance in cynomolgus monkey liver microsomes; type: ADME, Macaca fascicularis, Microsome
[12] = Oral bioavailability in dog at 0.6 mg/kg; type: ADME, organism-based, Canis lupus familiaris; details: in vivo
[13] = Clearance in dog at 0.6 mg/kg; type: ADME, organism-based, Canis lupus familiaris; design: dose 0.6 mg/kg; details: in vivo
[14] = Lipophilicity, log D of the compound by HPLC analysis; type: physicochemical
Salmonella typhimurium = test: Genotoxicity in Salmonella typhimurium by high-throughput fluctuation test/mini-Ames assay; type: toxicity, organism-based; details: salmonella enterica subsp. enterica serovar typhimurium
[15] = Clearance in cynomolgus monkey at 2 mg/kg; type: ADME, organism-based, Macaca fascicularis; design: dose 2 mg/kg; details: in vivo
[16] = Oral bioavailability in cynomolgus monkey at 2 mg/kg; type: ADME, organism-based, Macaca fascicularis; details: in vivo
[17] = AUC in rat at 5 mg/kg, po; type: ADME, organism-based; design: dose 5 mg/kg, route oral; details: plasma
[18] = Chemical stability of the compound up to 3 months at 50 degC; type: physicochemical
[19] = AUC in cynomolgus monkey at 2 mg/kg, po; type: ADME, organism-based, Macaca fascicularis; design: dose 2 mg/kg, route oral; details: plasma
Cytochrome P450 2C19 = Cytochrome P450 2C19 (Homo sapiens, UniProt P33261); test: Inhibition of human CYP2C19; type: ADME
Cytochrome P450 2C9 = Cytochrome P450 2C9 (Homo sapiens, UniProt P11712); test: Inhibition of human CYP2C9; type: ADME
Rattus norvegicus [20] = test: Toxicity in Sprague-Dawley rat assessed as adverse histological findings at 100 mg/kg/day, po for 7 days; type: organism-based; design: route oral; details: in vivo, 168 h
Cytochrome P450 3A4 [21] = target: T4, Cytochrome P450 3A4 (Homo sapiens, UniProt P08684); test: Inhibition of human CYP3A4 using 7-benzyloxyquinoline as substrate; type: ADME
[22] = AUC in dog at 0.6 mg/kg, po; type: ADME, organism-based, Canis lupus familiaris; design: dose 0.6 mg/kg, route oral; details: plasma
[23] = Aqueous solubility of the compound by HPLC analysis; type: physicochemical
Liver microsomes [24] = test: Intrinsic clearance in human liver microsomes; type: ADME, Microsome
[25] = Half life in rat; type: ADME, organism-based; details: in vivo
Rattus norvegicus [26] = test: Toxicity in Sprague-Dawley rat assessed as reduction in body weight at 100 mg/kg/day, po for 7 days; type: organism-based; design: route oral; details: in vivo, 168 h
Vasopressin V2 receptor = Vasopressin V2 receptor (Homo sapiens, UniProt P30518); test: Displacement of [3H]vasopressin from human vasopressin V2 receptor
Cytochrome P450 3A4 [27] = target: T4, Cytochrome P450 3A4; test: Inhibition of human CYP3A4 using diethoxyfluorescein as substrate; type: ADME
[28] = Oral bioavailability in rat at 5 mg/kg; type: ADME, organism-based; details: in vivo
Rattus norvegicus [29] = test: Toxicity in Sprague-Dawley rat assessed as reduction in food intake at 100 mg/kg/day, po for 7 days; type: organism-based; design: route oral; details: in vivo, 168 h
Liver microsomes [30] = test: Intrinsic clearance in rat liver microsomes; type: ADME, Microsome
serum albumin [31] = target: serum albumin (Rattus norvegicus, UniProt P02770); test: Binding affinity to rat serum albumin; type: ADME; details: read-out: PB (converted)
Sequence of serum albumin (Rattus norvegicus, UniProt P02770) (P02770 whole entry): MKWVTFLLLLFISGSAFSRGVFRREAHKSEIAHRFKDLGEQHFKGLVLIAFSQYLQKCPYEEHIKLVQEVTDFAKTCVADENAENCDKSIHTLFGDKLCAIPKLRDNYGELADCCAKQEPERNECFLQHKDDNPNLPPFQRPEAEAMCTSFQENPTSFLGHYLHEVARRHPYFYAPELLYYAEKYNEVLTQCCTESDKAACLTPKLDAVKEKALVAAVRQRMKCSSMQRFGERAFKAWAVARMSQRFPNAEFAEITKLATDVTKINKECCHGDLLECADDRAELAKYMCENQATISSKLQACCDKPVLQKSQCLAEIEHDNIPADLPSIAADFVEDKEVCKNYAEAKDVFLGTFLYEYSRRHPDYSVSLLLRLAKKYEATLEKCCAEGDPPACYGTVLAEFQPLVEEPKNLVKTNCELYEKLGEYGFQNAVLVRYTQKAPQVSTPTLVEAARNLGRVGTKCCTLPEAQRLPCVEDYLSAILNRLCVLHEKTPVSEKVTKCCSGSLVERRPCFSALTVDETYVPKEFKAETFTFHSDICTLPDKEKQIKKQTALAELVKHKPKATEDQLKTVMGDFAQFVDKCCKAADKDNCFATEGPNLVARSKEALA

T4 sequence (P08684 whole entry): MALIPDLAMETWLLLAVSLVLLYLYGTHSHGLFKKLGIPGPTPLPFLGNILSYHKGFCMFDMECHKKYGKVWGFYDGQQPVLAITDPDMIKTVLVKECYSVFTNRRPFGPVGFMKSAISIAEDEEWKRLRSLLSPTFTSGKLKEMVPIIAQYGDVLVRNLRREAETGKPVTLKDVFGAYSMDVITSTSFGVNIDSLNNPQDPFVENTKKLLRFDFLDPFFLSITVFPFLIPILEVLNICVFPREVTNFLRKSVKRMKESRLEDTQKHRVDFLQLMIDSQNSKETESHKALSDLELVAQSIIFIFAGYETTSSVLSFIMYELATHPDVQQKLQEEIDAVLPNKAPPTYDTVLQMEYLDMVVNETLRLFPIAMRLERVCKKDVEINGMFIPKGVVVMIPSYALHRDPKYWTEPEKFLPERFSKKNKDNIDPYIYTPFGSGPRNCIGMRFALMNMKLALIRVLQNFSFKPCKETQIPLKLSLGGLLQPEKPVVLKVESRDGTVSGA
Sequence of Cytochrome P450 2C9 (P11712 whole entry): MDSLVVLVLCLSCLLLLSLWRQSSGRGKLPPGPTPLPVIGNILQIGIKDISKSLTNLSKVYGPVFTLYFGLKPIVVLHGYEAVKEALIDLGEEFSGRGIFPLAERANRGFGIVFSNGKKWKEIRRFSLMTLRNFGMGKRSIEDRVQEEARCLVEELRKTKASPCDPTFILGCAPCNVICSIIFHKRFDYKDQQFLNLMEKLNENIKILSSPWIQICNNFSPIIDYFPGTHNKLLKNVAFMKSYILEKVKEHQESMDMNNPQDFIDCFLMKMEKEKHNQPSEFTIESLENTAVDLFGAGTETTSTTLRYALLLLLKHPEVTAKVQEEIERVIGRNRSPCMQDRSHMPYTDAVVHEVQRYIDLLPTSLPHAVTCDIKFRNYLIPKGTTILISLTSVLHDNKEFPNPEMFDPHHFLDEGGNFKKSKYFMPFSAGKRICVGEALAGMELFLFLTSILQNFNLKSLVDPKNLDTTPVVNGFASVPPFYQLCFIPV
Sequence of Vasopressin V2 receptor (P30518 whole entry): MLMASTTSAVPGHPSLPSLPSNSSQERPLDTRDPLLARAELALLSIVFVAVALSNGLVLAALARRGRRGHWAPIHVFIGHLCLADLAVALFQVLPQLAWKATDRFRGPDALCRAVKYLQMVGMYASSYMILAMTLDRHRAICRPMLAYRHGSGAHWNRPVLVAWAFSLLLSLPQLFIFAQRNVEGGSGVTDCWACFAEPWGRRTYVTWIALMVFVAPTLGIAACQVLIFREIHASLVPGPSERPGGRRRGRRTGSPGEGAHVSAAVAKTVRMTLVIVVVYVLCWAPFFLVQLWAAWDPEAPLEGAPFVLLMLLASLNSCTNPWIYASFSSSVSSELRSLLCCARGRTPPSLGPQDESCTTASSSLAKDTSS
Sequence of serum albumin (Homo sapiens, UniProt P02768) (P02768 whole entry): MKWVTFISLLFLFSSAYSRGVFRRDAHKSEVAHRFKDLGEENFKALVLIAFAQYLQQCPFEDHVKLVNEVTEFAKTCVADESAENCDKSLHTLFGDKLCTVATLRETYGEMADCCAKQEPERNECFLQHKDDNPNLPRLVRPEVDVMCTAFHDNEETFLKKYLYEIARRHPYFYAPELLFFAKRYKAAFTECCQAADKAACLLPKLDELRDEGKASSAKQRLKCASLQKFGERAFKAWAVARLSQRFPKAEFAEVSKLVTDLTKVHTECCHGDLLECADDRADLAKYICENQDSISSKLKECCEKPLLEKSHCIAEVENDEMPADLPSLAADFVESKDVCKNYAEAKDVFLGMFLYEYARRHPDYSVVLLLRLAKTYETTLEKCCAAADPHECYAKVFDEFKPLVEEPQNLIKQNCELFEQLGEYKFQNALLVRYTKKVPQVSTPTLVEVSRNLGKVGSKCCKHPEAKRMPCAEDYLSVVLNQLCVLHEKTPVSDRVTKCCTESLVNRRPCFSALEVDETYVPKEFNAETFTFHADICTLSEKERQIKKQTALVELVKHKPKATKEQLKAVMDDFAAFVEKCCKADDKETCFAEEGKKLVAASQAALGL
Sequence of Cytochrome P450 2D6 (P10635 whole entry): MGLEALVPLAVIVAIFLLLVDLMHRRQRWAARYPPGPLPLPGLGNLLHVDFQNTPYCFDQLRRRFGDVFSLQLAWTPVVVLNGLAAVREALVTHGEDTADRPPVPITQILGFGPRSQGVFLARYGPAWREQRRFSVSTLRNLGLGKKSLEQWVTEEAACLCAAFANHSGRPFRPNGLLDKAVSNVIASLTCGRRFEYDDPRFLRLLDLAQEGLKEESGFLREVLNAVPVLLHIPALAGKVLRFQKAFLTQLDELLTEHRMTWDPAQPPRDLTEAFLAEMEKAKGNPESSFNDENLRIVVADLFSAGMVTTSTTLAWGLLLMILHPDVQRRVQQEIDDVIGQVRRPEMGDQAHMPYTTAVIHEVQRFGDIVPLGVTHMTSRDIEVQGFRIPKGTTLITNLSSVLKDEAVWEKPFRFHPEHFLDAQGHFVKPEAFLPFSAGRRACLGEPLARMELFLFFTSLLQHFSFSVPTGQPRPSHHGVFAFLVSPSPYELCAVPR
Sequence of Vasopressin V1a receptor (P37288 whole entry): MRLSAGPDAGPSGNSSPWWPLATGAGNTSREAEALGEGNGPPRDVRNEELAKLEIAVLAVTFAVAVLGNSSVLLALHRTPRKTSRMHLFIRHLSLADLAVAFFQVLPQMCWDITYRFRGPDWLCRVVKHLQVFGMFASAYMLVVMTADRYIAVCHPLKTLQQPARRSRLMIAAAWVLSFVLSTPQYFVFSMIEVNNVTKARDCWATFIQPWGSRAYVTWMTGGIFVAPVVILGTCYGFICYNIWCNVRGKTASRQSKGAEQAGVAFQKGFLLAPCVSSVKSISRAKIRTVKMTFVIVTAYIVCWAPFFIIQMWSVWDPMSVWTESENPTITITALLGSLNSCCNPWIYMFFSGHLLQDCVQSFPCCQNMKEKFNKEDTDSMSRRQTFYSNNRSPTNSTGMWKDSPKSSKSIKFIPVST
Sequence of Cytochrome P450 2C19 (P33261 whole entry): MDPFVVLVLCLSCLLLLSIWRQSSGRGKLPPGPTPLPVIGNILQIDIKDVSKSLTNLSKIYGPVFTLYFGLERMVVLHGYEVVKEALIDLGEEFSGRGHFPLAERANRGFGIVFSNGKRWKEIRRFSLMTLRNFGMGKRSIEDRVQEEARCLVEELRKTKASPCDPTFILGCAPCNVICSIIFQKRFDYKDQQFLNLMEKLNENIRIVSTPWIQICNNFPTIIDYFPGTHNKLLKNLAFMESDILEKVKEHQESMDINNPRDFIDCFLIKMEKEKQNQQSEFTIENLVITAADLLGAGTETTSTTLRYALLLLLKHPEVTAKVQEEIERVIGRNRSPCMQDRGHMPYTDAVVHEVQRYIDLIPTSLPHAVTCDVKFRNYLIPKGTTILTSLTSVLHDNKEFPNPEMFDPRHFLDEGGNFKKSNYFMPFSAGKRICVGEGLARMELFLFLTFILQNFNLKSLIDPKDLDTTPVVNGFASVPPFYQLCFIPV

SMILES	Ki (Vasopressin V1a receptor) [µM]	Ki (Vasopressin V1b receptor) [µM]	fraction unbound (serum albumin [6])	Ki (Oxytocin receptor [8]) [nM]	IC50 (Cytochrome P450 2D6) [µM]	IC50 (Cytochrome P450 1A2) [µM]	clearance [9] [mL/min/kg]	CLH (Liver) [mL/min/g]	CLH [11] [mL/min/g]	bioavailability [12] [%]	clearance [13] [mL/min/kg]	logD [14]	clearance [15] [mL/min/kg]	bioavailability [16] [%]	AUC [17] [ng·h/mL]	AUC [19] [ng·h/mL]	IC50 (Cytochrome P450 2C19) [µM]	AUC [22] [ng·h/mL]	CLH (Liver microsomes [24]) [mL/min/g]	CLH (Liver microsomes [30]) [mL/min/g]	other results
CC(C)C[C@@H]1C(=O)N[C@H](C2Cc3ccccc3C2)C(=O)N1[C@@H](C(=O)NC(C)C)c1ccccc1C(F)(F)F	–	–	–	–	–	–	–	–	–	–	–	–	–	–	–	–	–	–	–	–	Ki (Oxytocin receptor [1]): 0.0316 µM
CC[C@H](C)[C@@H]1C(=O)N[C@H](C2Cc3ccccc3C2)C(=O)N1[C@@H](C(=O)N1CCOCC1)c1ccc(C)nc1C [EPELSIBAN]	> 6.31	> 7.94	0.3	0.126	> 100	> 100	13	< 1	4	13	19	2.2	26	7	3450	116	> 100	69	5	< 1	Stability [2]: Stable; IC50 (Rattus norvegicus [3]): 0.192 µM; Activity (Rattus norvegicus [4]): Non-toxic; logD [5]: 2.55; solubility [7]: 33 mg/mL (≈ 63.6 mM); pKa [10]: 5.78; Activity (Salmonella typhimurium): Non-toxic; Stability [18]: Stable; IC50 (Cytochrome P450 2C9): > 100 µM; Activity (Rattus norvegicus [20]): Non-toxic; IC50 (Cytochrome P450 3A4 [21]): > 100 µM; solubility [23]: 0.232 mg/mL (≈ 0.447 mM); half-life [25]: 1.2 h; Activity (Rattus norvegicus [26]): Non-toxic; Ki (Vasopressin V2 receptor): 3.98 µM; IC50 (Cytochrome P450 3A4 [27]): > 100 µM; bioavailability [28]: 55%; Activity (Rattus norvegicus [29]): Non-toxic
CC(C)C[C@@H]1C(=O)N[C@H](C2Cc3ccccc3C2)C(=O)N1[C@@H](C(=O)N(C)C)c1ccc(F)cc1F	0.631	> 12.6	0.06	0.0794	66	> 100	15	7	22	–	7	3.4	24	1.5	2970	16	38	770	14	2	IC50 (Cytochrome P450 2C9): 12 µM; IC50 (Cytochrome P450 3A4 [21]): 31 µM; fraction unbound (serum albumin [31]): 0.01; Ki (Vasopressin V2 receptor): 0.0398 µM; IC50 (Cytochrome P450 3A4 [27]): 5 µM
CC[C@H](C)[C@@H]1C(=O)N[C@H](C2Cc3ccccc3C2)C(=O)N1[C@@H](C(=O)N(C)C)c1ccc(C)nc1C	–	–	–	0.0794	–	–	15	1	14	44	14	–	20	1	4720	17	–	305	7	1	bioavailability [28]: 84%
